Reference: patent US7851492B2, “ERG channel openers for the treatment of cardiac arrhythmias” (Neurosearch A/S, priority 2003, dated 2010)

Key:
HERG1 channel [1] = molecular target: T1, HERG1 channel (Homo sapiens, UniProt Q12809); test: HERG1 current by patch clamp with simulated cardiac action potential in HEK293 cells stably expressing HERG1 channels; type: cell-based
T1 construct: expressed in transfected cells; host or cells: Xenopus laevis oocytes (transient expression, vector pXOOM)
Experimental: In this example the HERG1 channel opening activity of a diphenyl urea derivative for use according to the invention, 1-(3-Trifluoromethyl-phenyl)-3-(2-hydroxy-5-chlorophenyl)-urea (Compound A), is determined using mammalian HEK293 cells stably expressing HERG1 channels.
The HERG1 channel is expressed in HEK293 cells. The gene encoding the HERG1 channel was cloned as described by Warmke & Ganetzky; Proc. Natl. Acad. Sci. USA 1994 91 3438-3442.
(§1) To ensure functional expression in HEK293 cells, the HERG1 gene was sub-cloned in the shuttle-vector pXOOM as described by Jespersen et al.; Biotechniques 2002 32 536-540.
Mammalian expression is obtained by stable transfection of the gene construct in HEK293 cells.
The electrical current through the HERG1 channel is measured using patch clamp technology. HERG1 current is activated by simulated cardiac action potentials.
In brief, this protocol goes from a resting membrane potential of −90 mV to a short initial depolarisation step to +30 mV, followed by a ramp ending at 0 mV. This plateau phase is ended by a repolarisation, going from −15 mV to −90 mV in 70 ms, back to the resting membrane potential, as also shown in the voltage protocol in FIG. 1.
Having reached a stable current level, Compound A was added.

HERG1 channel [2] = molecular target: T1, HERG1 channel; test: HERG1 current by 2-electrode voltage clamp in Xenopus laevis oocytes transiently expressing HERG1 channels; type: cell-based
Experimental: The HERG1 channel is expressed in HEK293 cells. The gene encoding the HERG1 channel was cloned as described by Warmke & Ganetzky, Proc. Natl. Acad. Sci. USA 1994 91 3438-3442.
as §1
The electrical current through the HERG1 channel is measured using 2-electrode voltage clamp technology. HERG1 current is activated by a step protocol.
In brief, this protocol goes from a resting membrane potential of −80 mV (lasting 3 seconds) to a 1 second depolarisation step at +10 mV, followed by a repolarisation step at −60 mV. The protocol is repeated up to 500 times.
Xenopus laevis oocytes transiently expressing HERG1 channels where challenged by a voltage protocol from −80 mV to +10 mV to −60 mV. This protocol was repeated every 7th second until a stable current level was obtained.

awake guinea pigs = test: Awake guinea-pig telemetry model: QT intervals in electrocardiograms; type: in vivo; settings: 50 mg/kg IV
Experimental: Compounds were dosed IV, and ECG's and heart rate were measured. QT intervals were corrected (QTc) for any change in heart rate.

native cardiac myocytes = test: Modulation of action potentials in native cardiac myocytes (patch clamp, current clamp mode); type: cell-based, guinea pig
Experimental: In this example the activity on native cardiac myocytes from guinea pigs of a compound representative of the invention, 1,3-Bis-(2-hydroxy-5-trifluoromethyl-phenyl)-urea (Compound C), obtained as described in WO 2002/064128, is determined.
The membrane potential of native cardiomyocytes was determined using the patch clamp technique in current clamp mode. The membrane potential was adjusted to approximately −80 mV before start of experiments. Cells were challenged by 20 repetitive rounds of current applications. A single round of application was as follows: Action potentials were evoked by applying a single current pulse of 1 nA lasting from 5-15 ms. The single pulse was followed by 30 repetitive pulses lasting 1-5 ms and with a current amplitude of 100-700 pA. The repetitive pulses were applied at the end of the evoked action potential. These experiments were conducted in the presence or absence of Compound C.
Native cardiomyocytes responded to the described voltage protocol by eliciting an actionpotential.

[3] = native guinea pig cardiomyocytes, current clamp, Example 3

T1 sequence (Q12809 whole entry): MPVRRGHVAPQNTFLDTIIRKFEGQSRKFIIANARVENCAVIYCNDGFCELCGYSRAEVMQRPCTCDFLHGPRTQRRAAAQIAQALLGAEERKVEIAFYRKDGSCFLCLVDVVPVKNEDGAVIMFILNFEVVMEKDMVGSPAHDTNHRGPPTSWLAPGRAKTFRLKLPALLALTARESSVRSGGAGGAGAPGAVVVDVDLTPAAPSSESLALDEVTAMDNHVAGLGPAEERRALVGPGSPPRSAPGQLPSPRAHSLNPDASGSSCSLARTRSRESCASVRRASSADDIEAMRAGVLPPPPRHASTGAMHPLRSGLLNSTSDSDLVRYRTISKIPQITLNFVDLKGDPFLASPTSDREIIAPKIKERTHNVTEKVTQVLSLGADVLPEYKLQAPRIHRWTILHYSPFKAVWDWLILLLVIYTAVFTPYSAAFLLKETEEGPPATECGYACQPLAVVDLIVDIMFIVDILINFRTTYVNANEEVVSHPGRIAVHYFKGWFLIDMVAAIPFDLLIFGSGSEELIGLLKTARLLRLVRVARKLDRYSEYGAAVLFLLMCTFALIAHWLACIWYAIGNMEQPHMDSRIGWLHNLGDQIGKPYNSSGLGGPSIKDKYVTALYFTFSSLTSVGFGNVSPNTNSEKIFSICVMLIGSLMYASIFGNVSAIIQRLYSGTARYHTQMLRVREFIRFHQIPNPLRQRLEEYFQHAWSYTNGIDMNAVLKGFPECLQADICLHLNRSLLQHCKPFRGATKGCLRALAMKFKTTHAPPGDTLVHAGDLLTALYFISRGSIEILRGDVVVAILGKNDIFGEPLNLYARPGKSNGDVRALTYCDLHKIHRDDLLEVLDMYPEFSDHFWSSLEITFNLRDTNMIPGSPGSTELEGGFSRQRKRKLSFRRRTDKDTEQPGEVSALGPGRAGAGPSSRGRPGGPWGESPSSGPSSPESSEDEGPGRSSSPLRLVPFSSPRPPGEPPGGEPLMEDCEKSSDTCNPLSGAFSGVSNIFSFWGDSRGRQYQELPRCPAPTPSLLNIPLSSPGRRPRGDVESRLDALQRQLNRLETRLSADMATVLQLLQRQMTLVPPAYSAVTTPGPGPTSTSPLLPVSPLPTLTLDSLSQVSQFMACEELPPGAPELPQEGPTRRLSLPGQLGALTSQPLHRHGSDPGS

O=C(Nc1ccc(Nc2ccc(Cl)cc2)c(Cl)c1)c1cc([N+](=O)[O-])ccc1O [Compound 17, N-[3-Chloro-4-(4-chloro-phenylamino)-phenyl]-2-hydroxy-5-nitro-benzamide]
melting point: > 219 °C (dec.)

O=C(Nc1cc(C(F)(F)F)ccc1O)Nc1ccccc1C(F)(F)F [Compound 1, 1-(2-Hydroxy-5-trifluoromethyl-phenyl)-3-(2-trifluoromethyl-phenyl)-urea]
melting point: 158 to 159 °C

O=C(Nc1cccc(C(F)(F)F)c1)Nc1cc(Cl)ccc1O [Compound A, 1-(3-Trifluoromethyl-phenyl)-3-(2-hydroxy-5-chlorophenyl)-urea]
repolarisation current (HERG1 channel [1]; HEK293 cells stably expressing HERG1, simulated cardiac action potential, 10 μM (FIG. 1)): marked increase | current during the last phase of the cardiac simulating voltage protocol (repolarisation current) (HERG1 channel [1]; HEK293 cells, 3-30 μM): increase | HERG1 current in the first 200 ms of the resting phase (HERG1 channel [1]; HEK293 cells, simulated cardiac action potential): increased

CN(C)C(=O)CCc1ccc(NC(=O)Nc2ccc(Cl)c(C(F)(F)F)c2)c(-c2nnn[nH]2)c1 [Compound 11, 3-[4-[3-(4-Chloro-3-trifluoromethyl-phenyl)-ureido]-3-(1H-tetrazol-5-yl)-phenyl]-N,N-dimethyl-propionamide]
melting point: 184.5 to 189.3 °C

O=C(Nc1ccc(-c2ccccc2)cc1-c1nnn[nH]1)c1cc(C(F)(F)F)cc(C(F)(F)F)c1 [Compound 15, N-[3-(1H-Tetrazol-5-yl)-biphenyl-4-yl]-3,5-bis-trifluoromethyl-benzamide]
HERG1 current (HERG1 channel [2]; 1-30 μM): increase | repolarisation current recorded at −60 mV (HERG1 channel [2]; voltage protocol −80 mV to +10 mV to −60 mV (FIG. 2)): marked increase | melting point: 156 °C (dec.)

O=C(Nc1cccc(C(F)(F)F)c1)Nc1ccc(Br)cc1-c1nnn[nH]1 [Compound B, 1-(3-Trifluoromethyl-phenyl)-3-[2-(1H-tetrazol-5-yl)-4-bromo-phenyl] urea]
reduction of the length of the corrected QT interval (QTc) compared to controls (awake guinea pigs): 23%

O=C(Nc1cc(Cl)cc(Cl)c1)Nc1ccc(Cl)cc1-c1nnn[nH]1 [Compound 12, 1-[4-Chloro-2-(1H-tetrazol-5-yl)-phenyl]-3-(3,5-dichloro-phenyl)-urea]
melting point: 234 to 236 °C

COc1ccc(NC(=O)Nc2cccc(C(F)(F)F)c2)c(O)n1 [Compound 4, 1-(2-Hydroxy-6-methoxy-pyridin-3-yl)-3-(3-trifluoromethyl-phenyl)-urea]
melting point: 223 to 224 °C

O=C(Nc1cccc(C(F)(F)F)c1)Nc1nccnc1C(=O)O [Compound 8, 3-[3-(3-Trifluoromethyl-phenyl)-ureido]-pyrazine-2-carboxylic acid]
melting point: > 300 °C

O=C(Nc1cc(Cl)ccc1O)Nc1ccccc1C(F)(F)F [Compound 3, 1-(5-Chloro-2-hydroxy-phenyl)-3-(2-trifluoromethyl-phenyl)-urea]
melting point: 183 to 184 °C

O=C(Nc1cc(C(F)(F)F)ccc1O)Nc1cc(C(F)(F)F)ccc1O [Compound C, 1,3-Bis-(2-hydroxy-5-trifluoromethyl-phenyl)-urea]
cardiac action potential duration (native cardiac myocytes; [3]): shorting of the cardiac action potential | membrane potential in the presence of the 30 repetitive pulses (native cardiac myocytes; [3]): stable membrane potential | rounds of current applications in which stabilisation was observed (native cardiac myocytes; of 20 rounds of current applications): 20 rounds

O=C(Nc1ncccn1)Nc1ccccc1C(F)(F)F [Compound 2, 1-Pyrimidin-2-yl-3-(2-trifluoromethyl-phenyl)-urea]
melting point: 224 to 225 °C

O=C(Nc1ccccc1F)Nc1cc(Cl)ccc1C(=O)O [Compound 9, 4-Chloro-2-[3-(2-fluoro-phenyl)-ureido]-benzoic acid]
melting point: 195 to 197 °C

O=C(Nc1cccc(C(F)(F)F)c1)Nc1c(C(=O)O)[nH]c(=O)[nH]c1=O [Compound 7, 2,6-Dioxo-5-[3-(3-trifluoromethyl-phenyl)-ureido]-1,2,3,6-tetrahydro-pyrimidine-4-carboxylic acid]
melting point: > 300 °C
